PubChem BioAssay AID2060883 (Molecular Pharmacology Branch, DTP, NCI, 2025)
One block for each molecule: values may come before it.

Tested on: 843782-103-R-J1-PDC complex spheroid viability
Experiment: Anticancer human tumor 843782-103-R-J1-PDC patient-derived lung adenocarcinoma cell line growth inhibition [RAS]
Conditions: for IC50: curve of first compound; for viability, T/C: stronger effect = lower value
Text: RAS pathway inhibitors in Combinations in Complex Spheroids
A high-throughput screen of multi-cell type tumor spheroids was designed to identify active combinations of RAS pathway inhibitors and targeted small molecules. Complex spheroids include a stromal component modeled by human endothelial cells (HUVEC) and fibroblasts modeled by human mesenchymal stem cells (MSCs). The concentration ranges selected for each drug and investigational agent were based upon clinically achievable concentrations if the clinical Cmax of the agent was known.
Compounds. The drugs and investigational agents: abemaciclib (NSC768073), cobimetinib (NSC768068), divarasib (GDC6063, NSC841802), docetaxel (NSC628503), GDC-1971 (RLY-1971, NSC841576), gemcitabine (NSC613327), inavolisib (NSC800729), ipatasertib (NSC767898), KB-0742 (NSC834161), MRTX-1133 (NSC836407), osimertinib (NSC779217), RMC-4630 (NSC839698), RMC-6236 (NSC851965), RMC-6291 (NSC852671), Ro-3306 (NSC812927), sapanisertib (NSC764658), SN-38 (NSC673596), staurosporine (NSC755774), SY5609 (NSC837396), and tovorafenib (DAY101, NSC766906), were obtained from the National Cancer Institute (NCI) Developmental Therapeutics Program Chemical Repository. The FDA-approved anticancer drug set is available from the NCI Developmental Therapeutics Program. […] The stock solutions were prepared in dimethyl sulfoxide (DMSO, Sigma-Aldrich, St. Louis, MO, cat. D2650) at 800-fold the tested concentration and stored at -70 degrees C prior to their use. All drugs and investigational agents were tested over a range starting from a high concentration at or near the clinical Cmax and decreasing in half-log increments. If the clinical Cmax for an agent had not been determined, the highest concentration tested was 10 microM.
Cell Culture. All cells were maintained in an incubator at 37 degrees C and 5% CO2 with 95% humidity. The PDC lines were cultured according to standard operating procedures established by the NCI PDMR. All PDCs were thawed and cultured in Matrigel-coated flasks prepared with a working solution of 1X Ham's F-12 nutrient mix, without supplementation (Invitrogen, Waltham, MA, cat. 11765054), 100 U/mL penicillin-streptomycin (Invitrogen, cat. 15140122), and 2.5% Matrigel (Corning Inc., Corning, NY, cat. 354248) for the first three passages. The 362531-283-R-J2-PDC and 782815-120-R-J1-PDC lines were cultured in 6C/Colon 1B media, which includes advanced DMEM/F-12 (Thermo Fisher Scientific, cat. 12634028), 10 mM HEPES (Thermo Fisher Scientific, cat. 15630080), 1X GlutaMAX supplement (Thermo Fisher Scientific, cat. 35050061), 0.1 mg/mL primocin (InvivoGen, San Diego, CA, cat. ant-pm-2), 10% defined fetal bovine serum, heat inactivated (HyClone Laboratories Inc., Logan, UT, cat. SH30070.03HI), 50% L-WRN conditioned media (ATCC, cat. CRL-3276), 1.25 mM N-Acetyl-L-cysteine (Sigma-Aldrich, cat. A9165), 10 mM nicotinamide (Sigma-Aldrich, cat. N0636), 1X B-27 supplement (Thermo Fisher Scientific, cat. 17504044), 1X N-2 supplement (Thermo Fisher Scientific, cat. 17502048), 50 ng/mL human EGF (Thermo Fisher Scientific, cat. PHG0311), and 10 microM Y-27632 dihydrochloride (Tocris Bioscience, cat. 1254). The K12877-001-R-J1-PDC line was cultured in 6I media, which includes all 6C/Colon 1B media plus 10 ng/mL human FGF-10 (PeproTech, cat. 100-26), 1 ng/mL human FGF-2 (PeproTech, cat. 100-18B), 1 µM prostaglandin E2 (Tocris Bioscience, cat. 2296), […] hydrocortisone (Sigma-Aldrich, cat. H4001), and […] bovine insulin (Sigma-Aldrich, cat. I6634). The K86415-001-R-J1-PDC line was cultured in 6D media, which includes all 6C/Colon 1B media components minus the L-WRN conditioned media. The 485176-168-R4-J1-PDC was cultured in PANC media, which includes all 6C/Colon 1B media plus 100 ng/mL human FGF-10 (PeproTech, cat. 100-26), 500 nM SB-431542 (Selleckchem, cat. S1067), and 10 nM gastrin (Tocris Bioscience, cat. 3006). […]
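Note: viability read after seven days of compound exposure.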

IC50 (second compound 0.00316 µM): 173 nM
IC50 (second compound 0.01 µM): 162 nM
IC50 (second compound 0.0316 µM): 133 nM
IC50 (second compound 0.1 µM): 121 nM
IC50 (second compound 0.316 µM): 140 nM
IC50 (second compound 1 µM): 138 nM
Structure (SMILES): O=C(c1ccc(F)c(F)c1Nc1ccc(I)cc1F)N1CC(O)([C@@H]2CCCCN2)C1 + C=CC(=O)N1CCN(c2nc(OCC3CCCN3C)nc3c(F)c(-c4nc(N)cc(C)c4C(F)(F)F)c(Cl)cc23)C(C)C1
viability, T/C (second compound 0.00316 µM, first compound 0.00316 µM): 85.4%
viability, T/C (second compound 0.00316 µM, first compound 0.01 µM): 92%
viability, T/C (second compound 0.00316 µM, first compound 0.0316 µM): 77.5%
viability, T/C (second compound 0.00316 µM, first compound 0.1 µM): 61%
viability, T/C (second compound 0.00316 µM, first compound 0.316 µM): 38.4%
viability, T/C (second compound 0.00316 µM, first compound 1 µM): 24.3%
viability, T/C (second compound 0.01 µM, first compound 0.00316 µM): 87.5%
viability, T/C (second compound 0.01 µM, first compound 0.01 µM): 85.4%
viability, T/C (second compound 0.01 µM, first compound 0.0316 µM): 73.2%
viability, T/C (second compound 0.01 µM, first compound 0.1 µM): 59.5%
viability, T/C (second compound 0.01 µM, first compound 0.316 µM): 37.9%
viability, T/C (second compound 0.01 µM, first compound 1 µM): 23.5%
viability, T/C (second compound 0.0316 µM, first compound 0.00316 µM): 83.4%
viability, T/C (second compound 0.0316 µM, first compound 0.01 µM): 80.2%
viability, T/C (second compound 0.0316 µM, first compound 0.0316 µM): 71%
viability, T/C (second compound 0.0316 µM, first compound 0.1 µM): 53.6%
viability, T/C (second compound 0.0316 µM, first compound 0.316 µM): 36.8%
viability, T/C (second compound 0.0316 µM, first compound 1 µM): 20.9%
viability, T/C (second compound 0.1 µM, first compound 0.00316 µM): 89.6%
viability, T/C (second compound 0.1 µM, first compound 0.01 µM): 79.6%
viability, T/C (second compound 0.1 µM, first compound 0.0316 µM): 68.6%
viability, T/C (second compound 0.1 µM, first compound 0.1 µM): 52.7%
viability, T/C (second compound 0.1 µM, first compound 0.316 µM): 35.9%
viability, T/C (second compound 0.1 µM, first compound 1 µM): 19.7%
viability, T/C (second compound 0.316 µM, first compound 0.00316 µM): 84.5%
viability, T/C (second compound 0.316 µM, first compound 0.01 µM): 79.9%
viability, T/C (second compound 0.316 µM, first compound 0.0316 µM): 68.3%
viability, T/C (second compound 0.316 µM, first compound 0.1 µM): 51.6%
viability, T/C (second compound 0.316 µM, first compound 0.316 µM): 42%
viability, T/C (second compound 0.316 µM, first compound 1 µM): 25.9%
viability, T/C (second compound 1 µM, first compound 0.00316 µM): 88.8%
viability, T/C (second compound 1 µM, first compound 0.01 µM): 75.5%
viability, T/C (second compound 1 µM, first compound 0.0316 µM): 70.8%
viability, T/C (second compound 1 µM, first compound 0.1 µM): 53.8%
viability, T/C (second compound 1 µM, first compound 0.316 µM): 38.5%
viability, T/C (second compound 1 µM, first compound 1 µM): 25.5%

IC50 (second compound 0.000949 µM): 197 nM
IC50 (second compound 0.003 µM): 291 nM
IC50 (second compound 0.00949 µM): 237 nM
IC50 (second compound 0.03 µM): 406 nM
IC50 (second compound 0.0949 µM): 329 nM
IC50 (second compound 0.3 µM): 298 nM
Structure (SMILES): CCN1CCN(Cc2ccc(Nc3ncc(F)c(-c4cc(F)c5nc(C)n(C(C)C)c5c4)n3)nc2)CC1 + CCn1c(-c2cccnc2C(C)OC)c2c3cc(ccc31)N1CCOC(CC(NC(=O)C(C(C)C)N(C)C(=O)C3(F)CCN(C(=O)C#CC(C)(C)N(C)C)CC3)C(=O)N3CCCC(N3)C(=O)OCC(C)(C)C2)C1
viability, T/C (second compound 0.000949 µM, first compound 0.00316 µM): 81%
viability, T/C (second compound 0.000949 µM, first compound 0.01 µM): 73.8%
viability, T/C (second compound 0.000949 µM, first compound 0.0316 µM): 59%
viability, T/C (second compound 0.000949 µM, first compound 0.1 µM): 58.3%
viability, T/C (second compound 0.000949 µM, first compound 0.316 µM): 46.5%
viability, T/C (second compound 0.000949 µM, first compound 1 µM): 38.1%
viability, T/C (second compound 0.003 µM, first compound 0.00316 µM): 78.8%
viability, T/C (second compound 0.003 µM, first compound 0.01 µM): 69.4%
viability, T/C (second compound 0.003 µM, first compound 0.0316 µM): 62.8%
viability, T/C (second compound 0.003 µM, first compound 0.1 µM): 67.1%
viability, T/C (second compound 0.003 µM, first compound 0.316 µM): 45.4%
viability, T/C (second compound 0.003 µM, first compound 1 µM): 37.8%
viability, T/C (second compound 0.00949 µM, first compound 0.00316 µM): 71.4%
viability, T/C (second compound 0.00949 µM, first compound 0.01 µM): 72.5%
viability, T/C (second compound 0.00949 µM, first compound 0.0316 µM): 67.6%
viability, T/C (second compound 0.00949 µM, first compound 0.1 µM): 61.2%
viability, T/C (second compound 0.00949 µM, first compound 0.316 µM): 46.2%
viability, T/C (second compound 0.00949 µM, first compound 1 µM): 34.1%
viability, T/C (second compound 0.03 µM, first compound 0.00316 µM): 71.3%
viability, T/C (second compound 0.03 µM, first compound 0.01 µM): 72%
viability, T/C (second compound 0.03 µM, first compound 0.0316 µM): 71%
viability, T/C (second compound 0.03 µM, first compound 0.1 µM): 58.8%
viability, T/C (second compound 0.03 µM, first compound 0.316 µM): 56.4%
viability, T/C (second compound 0.03 µM, first compound 1 µM): 35.6%
viability, T/C (second compound 0.0949 µM, first compound 0.00316 µM): 84.2%
viability, T/C (second compound 0.0949 µM, first compound 0.01 µM): 75.7%
viability, T/C (second compound 0.0949 µM, first compound 0.0316 µM): 68.7%
viability, T/C (second compound 0.0949 µM, first compound 0.1 µM): 60.3%
viability, T/C (second compound 0.0949 µM, first compound 0.316 µM): 46.7%
viability, T/C (second compound 0.0949 µM, first compound 1 µM): 45%
viability, T/C (second compound 0.3 µM, first compound 0.00316 µM): 72%
viability, T/C (second compound 0.3 µM, first compound 0.01 µM): 66.1%
viability, T/C (second compound 0.3 µM, first compound 0.0316 µM): 56.5%
viability, T/C (second compound 0.3 µM, first compound 0.1 µM): 66.8%
viability, T/C (second compound 0.3 µM, first compound 0.316 µM): 46%
viability, T/C (second compound 0.3 µM, first compound 1 µM): 38.8%
